Assay results reported in DBAASP.
≈ marks a conversion by molar mass, not a printed value.

How the values were obtained:
Assay in all cases: ≥ marks a high value that may be exact or a test limit, other limits are often not marked, values filed in µg/mL are converted to µM
[1] = tested on: Staphylococcus aureus ATCC 29213
[2] = tested on: Staphylococcus epidermidis ATCC 9709
[3] = tested on: Staphylococcus aureus ATCC 43300
Salmonella typhimurium = tested on: Salmonella typhimurium
[4] = tested on: Escherichia coli ATCC 25404
Listeria monocytogenes = tested on: Listeria monocytogenes
Escherichia coli O157 = tested on: Escherichia coli O157
[5] = tested on: Micrococcus luteus ATCC 10420
[6] = tested on: Staphylococcus aureus ATCC 25923
[7] = tested on: Klebsiella pneumoniae ATCC 700603
[8] = tested on: Staphylococcus epidermidis RP62A/1
[9] = tested on: Acinetobacter baumannii NM8
[10] = tested on: Pseudomonas aeruginosa ATCC 27853
[11] = tested on: Stenotrophomonas maltophilia B32/4
[12] = tested on: Staphylococcus epidermidis RP62A
[13] = tested on: Candida albicans ATCC 90028
[14] = tested on: Escherichia coli ATCC 25726
[15] = tested on: Pseudomonas aeruginosa KCTC 1637
[16] = tested on: Salmonella typhimurium CCARM 8013
[17] = tested on: Listeria monocytogenes KCTC 3710
[18] = tested on: Salmonella typhimurium CCARM 8007
[19] = tested on: Salmonella typhimurium CCARM 8009
[20] = tested on: Candida albicans CCARM 14001
[21] = tested on: Staphylococcus aureus KCTC 1621
[22] = tested on: Staphylococcus aureus CCARM 3114
[23] = tested on: Candida albicans CCARM 14007
[24] = tested on: Candida albicans KCTC 7270
[25] = tested on: Staphylococcus aureus CCARM 3090
[26] = tested on: Staphylococcus aureus CCARM 3108
[27] = tested on: Staphylococcus aureus CCARM 3089
[28] = tested on: Escherichia coli CCARM 1238
[29] = tested on: Escherichia coli CCARM 1229
[30] = tested on: Salmonella typhimurium KCTC 1926
[31] = tested on: Bacillus subtilis KCTC 1918
[32] = tested on: Staphylococcus aureus CCARM 3126
[33] = tested on: Escherichia coli KCTC 1682
[34] = tested on: Providencia rettgeri CMCC 49256
[35] = tested on: Bacillus subtilis CGMCC 1.88
[36] = tested on: Bacillus thuringiensis serovar israelensis H14
[37] = tested on: Corynebacterium glutamicum CGMCC 1.818
[38] = tested on: Alcaligenes faecalis CGMCC 1.924
[39] = tested on: Aspergillus flavus CGMCC 3.6433
[40] = tested on: Penicillium sp. ATCC 30106
[41] = tested on: Escherichia coli CGMCC 1.1369
[42] = tested on: Enterobacter cloacae CGMCC 1.58
[43] = tested on: Klebsiella aerogenes CGMCC 1.2021
[44] = tested on: Saccharomyces cerevisiae CGMCC 2.1619
[45] = tested on: Enterococcus faecalis CGMCC 1.100
[46] = tested on: Micrococcus luteus AB206228
[47] = tested on: Proteus vulgaris CGMCC 1.1651
[48] = tested on: Bacillus cereus CMCC 1.126
[49] = tested on: Pseudomonas aeruginosa CMCC 10104
[50] = tested on: Tetragenococcus halophilus CGMCC 1.2492
[51] = tested on: Salmonella typhimurium CGMCC 1.1174
[52] = tested on: Candida albicans CMCC 98001
[53] = tested on: Acetobacterium wieringae CGMCC 1.2033
[54] = tested on: Beauveria bassiana CGMCC 3.3576

SMILES: CC(C)C[C@H](NC(=O)[C@H](CC(C)C)NC(=O)[C@H](CCCCN)NC(=O)[C@H](CO)NC(=O)[C@H](CC(C)C)NC(=O)[C@H](C)NC(=O)[C@H](Cc1cnc[nH]1)NC(=O)[C@H](Cc1ccccc1)NC(=O)[C@H](CC(C)C)NC(=O)[C@H](C)NC(=O)CNC(=O)[C@H](CC(C)C)NC(=O)[C@@H](N)Cc1ccccc1)C(=O)O [FLGALFHALSKLL]
- MIC [1]: 4 µM (≈ 5.72 µg/mL)
- MIC [2]: 4 µM (≈ 5.72 µg/mL)
- MIC [3]: 4 µM (≈ 5.72 µg/mL)
- MIC (Salmonella typhimurium): ≥ 64 µM
- MIC [4]: ≥ 64 µM
- MIC (Listeria monocytogenes): 8 µM (≈ 11.4 µg/mL)
- MIC (Escherichia coli O157): ≥ 64 µM
- MIC [5]: 2 µM (≈ 2.86 µg/mL)

SMILES: CC[C@H](C)[C@H](N)C(=O)N[C@@H](CC(C)C)C(=O)N[C@@H](CCCCN)C(=O)N[C@@H](CCCCN)C(=O)N[C@@H](CC(C)C)C(=O)N[C@@H](CC(C)C)C(=O)N[C@@H](CO)C(=O)N[C@H](C(=O)N[C@@H](C)C(=O)N[C@@H](C)C(=O)NCC(=O)N[C@@H](CC(C)C)C(=O)N[C@@H](CC(C)C)C(=O)N[C@@H](CO)C(=O)N[C@@H](CC(N)=O)C(=O)N[C@@H](CC(C)C)C(N)=O)[C@@H](C)O [ILKKLLSTAAGLLSNL]
- MIC [6]: 64 µM (≈ 106 µg/mL)
- MIC [7]: 128 µM (≈ 212 µg/mL)
- MIC [8]: 16 µM (≈ 26.5 µg/mL)
- MIC [9]: 16 µM (≈ 26.5 µg/mL)
- MIC [10]: 128 µM (≈ 212 µg/mL)
- MIC [11]: ≥ 32 µM
- MIC [12]: ≥ 32 µM
- MIC [13]: ≥ 32 µM
- MIC [14]: ≥ 32 µM

SMILES: NCCCC[C@H](NC(=O)[C@H](Cc1c[nH]c2ccccc12)NC(=O)[C@@H](N)CCCCN)C(=O)N[C@@H](Cc1c[nH]c2ccccc12)C(N)=O [KWKW]
- MIC [15]: ≥ 200 µM
- MIC [16]: ≥ 200 µM
- MIC [17]: ≥ 200 µM
- MIC [18]: ≥ 309 µM
- MIC [19]: ≥ 200 µM
- MIC [20]: ≥ 128 µM
- MIC [21]: ≥ 200 µM
- MIC [22]: ≥ 200 µM
- MIC [23]: ≥ 128 µM
- MIC [24]: ≥ 128 µM
- MIC [25]: ≥ 200 µM
- MIC [26]: ≥ 200 µM
- MIC [27]: ≥ 200 µM
- MIC [28]: ≥ 200 µM
- MIC [29]: ≥ 200 µM
- MIC [30]: ≥ 200 µM
- MIC [31]: ≥ 200 µM
- MIC [32]: ≥ 200 µM
- MIC [33]: ≥ 200 µM

SMILES: CC[C@H](C)[C@H](NC(=O)[C@H](Cc1ccccc1)NC(=O)[C@H](CCCCN)NC(=O)[C@H](C)NC(=O)[C@@H](NC(=O)[C@H](CO)NC(=O)[C@H](CCCCN)NC(=O)[C@H](CCSC)NC(=O)[C@H](C)NC(=O)[C@H](CCCCN)NC(=O)[C@H](Cc1ccccc1)NC(=O)[C@H](Cc1c[nH]c2ccccc12)NC(=O)CNC(=O)[C@H](CCCCN)NC(=O)[C@@H](N)CCCN=C(N)N)[C@@H](C)CC)C(=O)N[C@@H](C)C(=O)N[C@@H](CCCCN)C(=O)N[C@@H](CCC(=O)O)C(=O)N[C@@H](CCCCN)C(=O)N[C@@H](CC(C)C)C(=O)N[C@@H](CCCCN)C(=O)N[C@@H](CCC(=O)O)C(=O)N[C@@H](Cc1cnc[nH]1)C(=O)N[C@@H](CC(C)C)C(=O)O [RKGWFKAMKSIAKFIAKEKLKEHL]
- MIC [34]: 6.2 µM (≈ 17.9 µg/mL)
- MIC [35]: 12.5 µM (≈ 36.1 µg/mL)
- MIC [36]: 12.5 µM (≈ 36.1 µg/mL)
- MIC [37]: 3.1 µM (≈ 8.95 µg/mL)
- MIC [38]: 3.1 µM (≈ 8.95 µg/mL)
- MIC [39]: 3.1 µM (≈ 8.95 µg/mL)
- MIC [40]: 3.1 µM (≈ 8.95 µg/mL)
- MIC [41]: 25 µM (≈ 72.2 µg/mL)
- MIC [42]: ≥ 50 µM
- MIC [43]: 12.5 µM (≈ 36.1 µg/mL)
- MIC [44]: ≥ 50 µM
- MIC [45]: 25 µM (≈ 72.2 µg/mL)
- MIC [46]: 3.1 µM (≈ 8.95 µg/mL)
- MIC [47]: 6.2 µM (≈ 17.9 µg/mL)
- MIC [48]: 6.2 µM (≈ 17.9 µg/mL)
- MIC [49]: 6.2 µM (≈ 17.9 µg/mL)
- MIC [50]: 3.1 µM (≈ 8.95 µg/mL)
- MIC [51]: 12.5 µM (≈ 36.1 µg/mL)
- MIC [52]: ≥ 50 µM
- MIC [53]: 3.1 µM (≈ 8.95 µg/mL)
- MIC [54]: 6.2 µM (≈ 17.9 µg/mL)
